US20240108753A1, “NUCLEIC ACID DELIVERY” (NUNTIUS THERAPEUTICS LIMITED, priority 2021, published 2024)

System: Neuro2A cells
Assay: DNA (pCl-Luc luciferase plasmid) transfection with peptide dendrimer and lipid
Assay type: cell-based, mouse
Settings: 0.25 μg pCl-Luc

Row | Substance | DNA transfection efficiency (luciferase, normalised to D/D), in words
1 | (KL)8(KKL)4(KKL)2KKLC-NH2 [G0,1,2,3-KL] | did not affect the transfection results
2 | (KL)8(KKL)4(KKL)2KGSA-NH2 [Ala-G1,2,3-KL] | did not affect the transfection results
3 | (kl)8(kkl)4(kkl)2kgsc-NH2 [D-G1,2,3KL] | did not have any significant impact on transfection
4 | (LK)8(KLK)4(KLK)2KGSC-NH2 [G1,2,3-LK] | did not have a significant difference
5 | (K)8(KK)4(KK)2KGSC-NH2 [G1,2,3-K] | not as effective as G1,2,3-KL
6 | (RL)4(KRL)2KGSC-NH2 [G1,2-RL] | higher transfection efficiency

System: HeLa cells
Assay: mRNA (eGFP) transfection with peptide dendrimers and DOTMA/DOPE in full growth medium
Assay type: cell-based, human
Settings: DOTMA/DOPE w/w=2:1 to mRNA and N:P=20:1
Procedure: FIG. 28. mRNA transfection of the peptide dendrimers with lipid system in vitro. […] The mRNA used expressed an eGFP reporter gene. Following a 24 hour transfection, the cells were harvested to assay the eGFP expression. The eGFP expression was normalised with the total amount of protein of each transfection. The gene expression level was calculated by normalising the transfection value of the G1,2-RL, 3-LR, DOTMA/DOPE & mRNA treated cells. 1st, 2nd and 3rd generation dendrimers with varying cores and 1st, 2nd, and 3rd generation peptide motifs can transfect cells with mRNA effectively under the tested conditions.
FIG. 29. mRNA transfection of the peptide dendrimers with lipid system in vitro. HeLa cells were transfected with mRNA alone or mRNA with peptide dendrimers and DOTMA/DOPE (w/w=10:1 to mRNA). The N:P ratio of G1,2-RL,3-LR was at 0.16:1 while the N:P ratios of all other dendrimers at 8:1. The mRNA used expressed an eGFP reporter gene. Following a 24 hour transfection, the cells were harvested to assay the eGFP expression. The eGFP expression was normalised with the total amount of protein of each transfection. The gene expression level was calculated by normalising the transfection value of the G1,2-RL, 3-LR, DOTMA/DOPE & mRNA treated cells. 1st, 2nd and 3rd generation dendrimers with varying cores and 1st, 2nd, and 3rd generation peptide motifs can transfect cells with mRNA effectively under the tested conditions.
The effect on the number of generations of dendrimers on mRNA delivery was studied by transfecting HeLa cells in full growth medium conditions.

Row | Substance | mRNA transfection efficiency as share of the improved formulation (DOTMA/DOPE w/w=10:1, N:P=0.16:1)
7 | (RR)4(KLL)2KGSC-NH2 [G1-LL, 2-RR] | 10%

Same assay, conditions: HeLa; full growth medium; DOTMA/DOPE w/w 10:1 to mRNA; relative to G1,2-RL, 3-LR

Row | Substance | mRNA transfection efficiency (eGFP), in words
8 | (LR)8(KRL)4(KRL)2KGSCRHCRFWRYM-NH2 [LinearG1,2-RL, 3-LR] | transfection efficiency was not affected
9 | (R)4(KR)2KRHC-NH2 [RHCG1,2-R] | can transfect cells effectively
10 | (RR)4(KLL)2KGSC-NH2 [G1-LL, 2-RR] | can be used to deliver mRNA
11 | (R)2KRHC-NH2 [RHCG1-R] | can transfect cells effectively
12 | (LR)4(KRL)2KRHC-NH2 [RHCG1-RL, 2-LR] | can transfect cells effectively
13 | (LR)2KRHC-NH2 [RHCG1-LR] | can transfect cells effectively

System: HeLa cells
Assay: DNA (pCl-Luc luciferase plasmid) transfection with peptide dendrimer and lipid
Assay type: cell-based, human
Settings: 0.25 μg pCl-Luc
Procedure: Cell Lines, transfection reagents and plasmids. HeLa cells were maintained in RPMI medium with 10% (v/v) FCS and 1% (v/v) P/S in a humidified atmosphere in 5% CO2 and 37° C. The plasmid pCl-Luc was derived from plasmid pCl (Promega, Southampton, UK) with the luciferase gene inserted. Branched PEI (25 kDa) was purchased from Sigma-Aldrich. Lipofectamine 2000 (L2000) and Lipofectin (DOTMA:DOPE, 1:1 (w/w)) were obtained from Invitrogen. PEI, L2000 and lipofectin were used as positive control transfection agents in accordance with the manufacturer's instructions.
Transfection procedure. 24 hours before transfection, HeLa cells were seeded (10,000 cells in 100 μL/well) in 96 well plates in order to reach 70% confluence. Plasmid transfection complexes were formed by mixing the dendrimers (100 μL, from 60 μg to 105 μg, dependent on N/P ratios) with lipofectin (4 μg; 100 μL). These mixtures were incubated with a pCl-Luc (4 μg; 100 μL) at different N/P ratios in OptiMEM for 30 min at 25° C. Transfection control complexes (PEI, Lipofectin or L2000) (total 100 μL in OptiMEM) were mixed with pCl-Luc (4 μg; 100 μL) at the respective manufacturers' recommended concentrations. For transfection in serum-free medium, before overlaying the DNA complexes on the cells, OptiMEM was added to dilute the complexes, so that each complex contained 0.25 μg DNA in a total volume of 100 μL in one well of a 96 well plate. For transfection in serum medium, before overlaying the DNA complexes on the cells, full growth medium was added to dilute the complexes, so that each complex contained 0.25 μg DNA in a total volume of 100 μL in one well of a 96 well plate. After removing complete media from the cells, the complexes were added to the plates. The plates were incubated for 4 hours at 37° C. Then, the transfection solutions were replaced by full growth media for 24 hours before luciferase activity was assayed.
Transgene expression assay. The cells were washed twice with PBS and incubated with reporter lysis buffer (20 μL, Promega) for 20 min at 4° C., then overnight at −80° C. After the cells were defrosted at room temperature, luciferase assay buffer (100 μL, Promega; prepared according to the manufacturer's protocol) was added to each well. The luminescent product was measured by Relative Light Units (RLU) in a FLUOstar Optima luminometer (BMG Labtech).
Protein content determination. The protein content of each cell lysate was determined by mixing the lysate (20 μL) with Bio-Rad Protein Assay Reagent (180 μL, Bio-Rad, Hemel Hempstead, UK). After incubation of 10 min, the absorbance at 590 nm was measured and converted to protein concentration using a BSA standard curve. RLU per mg of protein represented luciferase activity. The ratio of these two values is the activity per protein unit (in RLU/mg).

Row | Substance | DNA transfection efficiency (luciferase, normalised to D/D), in words
14 | (KL)8(KKL)4(KKL)2KKLC-NH2 [G0,1,2,3-KL] | did not affect the transfection results
15 | (KL)8(KKL)4(KKL)2KGSA-NH2 [Ala-G1,2,3-KL] | did not affect the transfection results
16 | (kl)8(kkl)4(kkl)2kgsc-NH2 [D-G1,2,3KL] | did not have any significant impact on transfection
17 | (LK)8(KLK)4(KLK)2KGSC-NH2 [G1,2,3-LK] | did not have a significant difference
18 | (KL)4(KKL)2KGSC-NH2 [G1,2-KL] | higher efficiency than in Neuro2A cells
19 | (K)8(KK)4(KK)2KGSC-NH2 [G1,2,3-K] | not as effective as G1,2,3-KL
20 | (RL)4(KRL)2KGSC-NH2 [G1,2-RL] | higher transfection efficiency

System: not listed separately
Assay: Hydrodynamic size, polydispersity index and zeta potential of dendrimer, lipid and mRNA complexes
Assay type: physicochemical
Settings: N:P 0.16:1; DOTMA/DOPE w/w 10:1 to mRNA
Procedure: The hydrodynamic size, polydispersity index and Zeta potential was determined for a set of the dendrimers disclosed in Tables 1 and 2.

Row | Substance | Polydispersity Index (PDI) | Zeta Potential
21 | (LR)8(KRL)4(KRL)2KGSCRHCRFWRYM-NH2 [LinearG1,2-RL, 3-LR] | 0.143 | 42 mV
22 | (R)4(KR)2KRHC-NH2 [RHCG1,2-R] | 0.114 | 37 mV
23 | (RR)4(KLL)2KGSC-NH2 [G1-LL, 2-RR] | 0.124 | 41 mV
24 | (R)2KRHC-NH2 [RHCG1-R] | 0.123 | 33 mV
25 | (LR)4(KRL)2KRHC-NH2 [RHCG1-RL, 2-LR] | 0.155 | 41 mV
26 | (LR)2KRHC-NH2 [RHCG1-LR] | 0.107 | 40 mV
27 | (RLR)8(KRLR)4(KRLR)2KRHC-NH2 [RHCG1,2,3-RLR] | 0.154 | 42 mV

Same assay, conditions: N:P 8:1; DOTMA/DOPE w/w 10:1 to mRNA

Row | Substance | Polydispersity Index (PDI) | Zeta Potential
28 | (LR)8(KRL)4(KRL)2KGSCRHCRFWRYM-NH2 [LinearG1,2-RL, 3-LR] | 0.289 | 54 mV
29 | (R)4(KR)2KRHC-NH2 [RHCG1,2-R] | 0.252 | 49 mV
30 | (RR)4(KLL)2KGSC-NH2 [G1-LL, 2-RR] | 0.087 | 47 mV
31 | (R)2KRHC-NH2 [RHCG1-R] | 0.566 | 45 mV
32 | (LR)4(KRL)2KRHC-NH2 [RHCG1-RL, 2-LR] | 0.109 | 46 mV
33 | (LR)2KRHC-NH2 [RHCG1-LR] | 0.577 | 35 mV
34 | (RLR)8(KRLR)4(KRLR)2KRHC-NH2 [RHCG1,2,3-RLR] | 0.299 | 56 mV

Same assay, conditions: dendrimer, lipid and mRNA complexes; N:P 0.16:1; DOTMA/DOPE w/w 10:1 to mRNA

Row | Substance | Hydrodynamic size
35 | (LR)8(KRL)4(KRL)2KGSCRHCRFWRYM-NH2 [LinearG1,2-RL, 3-LR] | 118 nm
36 | (R)4(KR)2KRHC-NH2 [RHCG1,2-R] | 123 nm
37 | (RR)4(KLL)2KGSC-NH2 [G1-LL, 2-RR] | 135 nm
38 | (R)2KRHC-NH2 [RHCG1-R] | 129 nm
39 | (LR)4(KRL)2KRHC-NH2 [RHCG1-RL, 2-LR] | 117 nm
40 | (LR)2KRHC-NH2 [RHCG1-LR] | 129 nm
41 | (RLR)8(KRLR)4(KRLR)2KRHC-NH2 [RHCG1,2,3-RLR] | 130 nm

Same assay, conditions: dendrimer, lipid and mRNA complexes; N:P 8:1; DOTMA/DOPE w/w 10:1 to mRNA

Row | Substance | Hydrodynamic size
42 | (LR)8(KRL)4(KRL)2KGSCRHCRFWRYM-NH2 [LinearG1,2-RL, 3-LR] | 62 nm
43 | (R)4(KR)2KRHC-NH2 [RHCG1,2-R] | 172 nm
44 | (RR)4(KLL)2KGSC-NH2 [G1-LL, 2-RR] | 213 nm
45 | (R)2KRHC-NH2 [RHCG1-R] | 366 nm
46 | (LR)4(KRL)2KRHC-NH2 [RHCG1-RL, 2-LR] | 206 nm
47 | (LR)2KRHC-NH2 [RHCG1-LR] | 326 nm
48 | (RLR)8(KRLR)4(KRLR)2KRHC-NH2 [RHCG1,2,3-RLR] | 73 nm

System: mice tissue
Assay: In vivo luciferase mRNA expression assays
Settings: intravenous; N:P 0.15:1 or 8:1; 6 hours
Procedure: Peptide dendrimers were diluted to a respective concentration and mixed with mRNA for a desired NP ratio such as NP=0.15:1 or 8:1. The solution was incubated in room temperature for 10 mins. Lipid such as DOTMA/DOPE was diluted to a respective concentration and mixed with the dendrimer-mRNA complexes for a desired NP ratio such as NP-4.7:1. The solution was incubated in room temperature for 20 mins. When required, the solution would be further diluted before injection.
All animal procedures conducted in our studies complied with UK laws and were inclusive of ethics approval. Female CD-1 mice (n=39) aged 6-8 weeks left to habituate for 1-week upon their arrival. All mice were weighed, and the formulations were delivered intravenously (100 μl) via the tail vein using 30G insulin syringes (BD biosciences).
All mice were imaged 6 hours post injection. BLI was performed using an IVIS Lumina II (Perkin Elmer) Imaging system. Mice were administered D-luciferin (30 mg/mL, XenoLight, Perkin Elmer) at a dose of 150 mg/kg. Mice were anaesthetised 6 mins after receiving D-luciferin in a chamber with 5% isoflurane and then placed on a heated imaging platform while being maintained on 2.5% isoflurane. Mice were imaged 10 min post administration of D-luciferin with an exposure time set to ensure the signal acquired was within an effective detection range (open filter, binning 8, f-stop 1). Bioluminescence signal was quantified by measuring photon flux (photons/s) in the defined region of interest (ROI) using the Living Image software (Perkin Elmer). Following in vivo whole-body imaging, the mice were euthanised, cardiac blood taken, and the tissues extracted for ex vivo imaging. Here each tissue was placed into individual wells of a 24-well imaging plate (black sided, Eppendorf) containing 0.3 mg/mL D-luciferin in PBS). The imaging plate was placed in the centre of imaging platform (Lumina II system) and signal was measured using the acquisition settings detailed above. Finally, the tissues were placed in storage vials and flash frozen in liquid nitrogen.
Mice were injected with a composition comprising DOTMA/DOPE, mRNA encoding luciferase and either G1,2,3-RL, (FIG. 10, top panel; the “G1,2,3-RL, lipid and mRNA formulation”) or G1,2-RL,3-LR (FIG. 10, bottom panel: the “G1,2,3-RL, lipid and mRNA formulation”). Each formulation was prepared and injected at an NP ratio of 8:1 and 0.15:1. Mice were prepared for detection of luciferase expression post injection.

Row | Substance | targeting mRNA delivery to the spleen and lung compared to G1,2-RL, 3-LR
49 | (LR)4(KRL)2KRHC-NH2 [RHCG1-RL, 2-LR] | higher efficiency than the third generation dendrimer G1,2-RL, 3-LR
